Data taken from patent US9266921B2, “PGC-1α-modulating peptides” (Lipotec, S.A., priority 2011, dated 2016).

Experiments:
[1] = system: subcutaneous human pre-adipocytes; experiment: Accumulation of lipids in subcutaneous human pre-adipocytes (AdipoRed); assay type: cell-based; details: peptide 0.1 mg/mL in PDM-2, 10 days, PGM-2 = 0%, PDM-2 = 100%
Experimental: The levels of accumulation of lipids in subcutaneous human pre-adipocytes were quantified using the AdipoRed™ (Lonza) reagent. 100,000 cells were cultivated per well in PGM™-2 medium at a final volume of 100 μL. After 24 hours, the differentiation from pre-adipocytes to mature adipocytes was induced changing the medium to PDM-2 in the presence of the different peptides at 0.1 mg/mL. After 10 days of treatment with the peptides in differentiation medium, the quantity of intracellular lipids was evaluated using the AdipoRed™ reagent following the manufacturer's instructions measuring the fluorescence of the samples (length of the excitation wave 485 nm and emission 535 nm) after adding the AdipoRed™ reagent. The fluorescence values were corrected with regards to the basal fluorescence and were normalized with regards to the maximum differentiation controls (PDM-2 medium, maximum accumulation of lipids) and minimum differentiation (PGM™-2 medium, minimum accumulation of lipids).

[2] = system: human PGC-1α promoter; experiment: Modulation of the human PGC-1α promoter activity (luciferase reporter, Hep G2); assay type: cell-based; details: Hep G2 transfected with luciferase under human PGC-1α promoter; peptide 0.5 mg/mL, 24 hours; normalized to carrier = 100%
Experimental: The modulation capacity of the promoter of human PGC-1α is evaluated by the peptides in the invention in the hepatocellular Hep G2 carcinoma cell line transfected with the luciferase gene under the regulation of the human PGC-1α promoter. The cells are seeded at a density of 20,000 cells/25 cm^2 plate) and incubated for 24 hours in RPMI-1640 complete medium, after which the peptides of the invention are added at 0.5 mg/mL and are incubated for another 24 hours. The RPMI-1640 complete medium (carrier) is used as a negative control. The measurement of the promoter's activity is carried out using the Steady-Glo® Luciferase Assay System (PROMEGA) kit following the manufacturer's instructions. The luminescence values are read on a luminometer […] and the activity of the promoter is determined, which is normalized with regards to the values of the negative control.

[3] = system: PGC-1α gene; experiment: Transcription of the PGC-1α gene, quantitative real time PCR in differentiating pre-adipocytes; assay type: cell-based; details: subcutaneous human adipocytes; peptide 0.1 mg/mL in PDM-2, 10 days; PGM-2 = 0%, PDM-2 = 100%
Experimental: The expression levels of the gene PGC-1α are measured by PCR in quantitative real time. A cell line of subcutaneous human pre-adipocytes is incubated in PGM™-2 medium at a density of 100,000 cells/well in a volume of 100 μL for 24 hours. Differentiation is induced by changing the medium to PDM-2 in the presence of the peptides Ac-L-Ser-L-Ile-L-Tyr-L-Val-L-Ala-L-Thr-NH2 (Ac-SEQ ID NO. 1-NH2) and Ac-L-Ser-L-Val-L-Val-L-Val-L-Arg-L-Thr-NH2 (Ac-SEQ ID NO. 2-NH2) at 0.1 mg/mL for 10 days, after which the cells were lysed and the RNA is extracted. The PCR is carried out in quantitative real time using the Taqman® Gene Expression Cells-to-CT (Applied Biosystems) kit according to the manufacturer's instructions and with the appropriate probes (TaqMan® Hs01016719_m1 probe for the PGC-1α gene and Taqman® Hs99999901_s1 probe for the eukaryotic ribosomal subunit 18S, the endogenous control of expression) and the values are normalized with regards to the maximum differentiation controls (PDM-2 medium, maximum quantity of PGC-1α mRNA) and minimal differentiation (PGM™-2 medium, minimum quantity of PGC-1α mRNA).

[4] = system: cellulitis (thigh); experiment: Reduction of cellulitis in volunteers, length of the dermo-hypodermic junction line (ultrasound); assay type: in vivo, human; details: after 21 days of treatment
Source text: 20 Caucasian volunteers between the age of 25 and 45, with healthy skin and affected by cellulitis levels I-III according to the pinch test applied the composition from Example 15 to one thigh and a placebo composition (the same composition from Example 15 without the peptide) to the other thigh, twice a day for 21 days. The length of the dermo-hypodermic junction line was instrumentally assessed using the Ultrasound Scanner Dermascan C® (Cortex Technology, Denmark) at the beginning of the study and at the end of the study (21 days). The measurement of the length of the dermo-hypodermic junction line is related to the formation of cellulitis and skin irregularities [Quatresooz P et al., “Cellulite histopathology and related mechanobiology”, (2006), Int. J. Cosm. Sci., 28, 207-210]. A reduction in the length of the dermo-hypodermic junction line leads to softer and more regular skin, and as such cellulitis will be less visible. The statistical analysis of the evolution of the parameters measured during the study was carried out using the Student's t-test. The statistical significance threshold was established at 5%.

[5] = system: breasts; experiment: Volume of the breasts in volunteers (Fast Optical In Vivo Topometry); parameters: species or system human; details: treatment up to 56 days
Source text: 22 Caucasian volunteers between the age of 25 and 40, with healthy skin and a bra size of between 36 C to 40 E applied the composition from Example 16 to one breast and a placebo composition (the same composition from Example 16 without the peptide) to the other breast, twice a day for 56 days. The volume of the breasts was instrumentally assessed at the beginning of the study, after 14 days and 28 days of applying the compositions and at the end of the study (56 days) using the Fast Optical In Vivo Topometry Technique, which enables the volume of the breasts to be calculated in mm^3. The volume of the breasts was normalized initially at an arbitrary value of 100,000 mm^3 and the changes in volume of the breasts was measured at the different treatment times in relation to their initial volume. The statistical analysis of the evolution of the parameters measured during the study was carried out using the Student's t-test or the Wilcoxon test. The statistical significance threshold was established at 5%.

Substance | % Accumulation of intracellular lipids [1] [%] | Activity of the PGC-1α promoter (%) [2] [%] | % relative quantity of PGC-1α mRNA [3] [%] | effect on the length of the dermo-hypodermic junction line and cellulitis [4] | effect on the volume of the breasts [5]
Ac-L-His-L-Ile-L-Val-L-Val-Gly-L-Thr-NH2 (Ac-HIVVGT-NH2) [Ac-SEQ ID NO. 21-NH2] | 114 | 110 |  |  | 
Ac-L-His-L-Val-L-Tyr-L-Val-L-Arg-L-Thr-NH2 (Ac-HVYVRT-NH2) [Ac-SEQ ID NO. 12-NH2] | 84 | 114 |  |  | 
Ac-L-Ser-L-Ile-L-Tyr-L-Val-L-Ala-L-Thr-NH2 (Ac-SIYVAT-NH2) [Ac-SEQ ID NO. 1-NH2] | 33 | 57 | 63 | induces a reduction in the length of the dermo-hypodermic junction line | 
Ac-L-Ser-L-Ile-L-Tyr-L-Val-L-Arg-L-Thr-NH2 (Ac-SIYVRT-NH2) [Ac-SEQ ID NO. 11-NH2] | 76 | 151 |  |  | 
Ac-L-Ser-L-Ile-L-Val-L-Val-Gly-L-Thr-NH2 (Ac-SIVVGT-NH2) [Ac-SEQ ID NO. 22-NH2] | 43 | 63 |  |  | 
Ac-L-Ser-L-Ile-L-Val-L-Val-Gly-L-Val-NH2 (Ac-SIVVGV-NH2) [Ac-SEQ ID NO. 46-NH2] | 38 | 78 |  |  | 
Ac-L-Ser-L-Val-L-Tyr-L-Val-L-Ala-L-Thr-NH2 (Ac-SVYVAT-NH2) [Ac-SEQ ID NO. 5-NH2] | 48 | 69 |  |  | 
Ac-L-Ser-L-Val-L-Tyr-L-Val-L-Arg-L-Thr-NH2 (Ac-SVYVRT-NH2) [Ac-SEQ ID NO. 13-NH2] | 79 | 131 |  |  | 
Ac-L-Ser-L-Val-L-Val-L-Val-Gly-L-Thr-NH2 (Ac-SVVVGT-NH2) [Ac-SEQ ID NO. 24-NH2] |  | 90 |  |  | 
Ac-L-Ser-L-Val-L-Val-L-Val-Gly-L-Val-NH2 (Ac-SVVVGV-NH2) [Ac-SEQ ID NO. 48-NH2] | 37 | 75 |  |  | 
Ac-L-Ser-L-Val-L-Val-L-Val-L-Ala-L-Thr-NH2 (Ac-SVVVAT-NH2) [Ac-SEQ ID NO. 9-NH2] |  | 62 |  |  | 
Ac-L-Ser-L-Val-L-Val-L-Val-L-Ala-L-Val-NH2 (Ac-SVVVAV-NH2) [Ac-SEQ ID NO. 32-NH2] |  | 82 |  |  | 
Ac-L-Ser-L-Val-L-Val-L-Val-L-Arg-L-Thr-NH2 (Ac-SVVVRT-NH2) [Ac-SEQ ID NO. 2-NH2] | 128 | 114 | 125 |  | induces an increase in the volume of the breasts
Ac-L-Ser-L-Val-L-Val-L-Val-L-Arg-L-Val-NH2 (Ac-SVVVRV-NH2) [Ac-SEQ ID NO. 40-NH2] |  | 141 |  |  | 
